Assay results as given in patent US20240122912A1, “A NANOFORMULATION FOR GLIOMA TREATMENT AND PROCESS FOR ITS PREPARATION THEREOF” (COUNCIL OF SCIENTIFIC AND INDUSTRIAL RESEARCH, priority 2021, published 2024).

Legend:
CHO, HEK293 = test: MTT cytotoxicity assay in non-cancer cells; assay type: cell-based; conditions: same concentration ranges
orthotopic GL261 glioma = test: Orthotopic glioma model: survivability and tumor lesions; assay type: in vivo, C57BL/6J mice; conditions: 5 injections, sacrificed on 12th day; H8 8 mg/Kg
From the text: Further, to observe the orthotopic brain tumor growth inhibitory efficiency of presently described SR-targeting CH8, we checked survivability among brain tumor-bearing mice following 5 alternate dosing of various treatment groups. Herein, the intraperitoneal injections started on 4th day until 12th day (total 5 injections) since stereotactic-based inoculation of GL261 cells in brain. […] In another set of experiment, animals bearing brain in situ GL261 cells and having 5 injections of various treatments were sacrificed on 12th day to visualize the status of tumor lesions in full brains obtained from respective treatment groups. […] Clearly, the visual effect of respective treatments has reflected on overall survivability of treated mice.

In the case of O=C(CCCN1CCC(O)(c2ccc(Cl)cc2)CC1)c1ccc(F)cc1 [H8], the “Cytotoxic effects in non-cancer cells” value (CHO, HEK293) is reported as “negligible” and the “Tumor sites / lesions in isolated brains” value (orthotopic GL261 glioma) is reported as “comparable effect on tumor sites”.
